Source: patent US11413278B2, “Compounds and methods for promoting stress resistance” (priority 2015, dated 2022)
Read-outs that look alike come from different tables or passages of the source.

Columns and labels:
LC3A/B puncta = experiment: Autophagy induction analysis (LC3A/B puncta immuno-staining); format: cell-based, human
How it was run: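 Read-out is LC3A/B puncta intensity per DAPI-positive nucleus, either total puncta (Exp. 1) or puncta colocalizing with LAMP2 lysosomes (Exp. 2). Cells were WI-38, exposed to compounds for 24 hrs before antibody staining overnight at 4° C and automated imaging.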

NRF2 [1] = experiment: qPCR analysis of NRF2-regulated genes; format: cell-based, human; settings: for fold induction at 10 µM: Homo sapiens
How it was run: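 Expression of HMOX1, NQO1, GCLC and GSTM1 measured by qPCR relative to B2M, PPIA and GAPDH. Cells were WI-38 fibroblasts exposed 24 hrs to 10 μM compound, with RNA and cDNA prepared via Cells-to-Ct. Where stated, cells were first transfected 36 hrs with FOXO3 or NRF2 siRNA at 10 nM.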

C. elegans = C. elegans lifespan assays (liquid and plate); format: in vivo, Caenorhabditis elegans; settings: for ILS at 60 µM / ILS at 66 µM: Caenorhabditis elegans; for O = Life span- extending scores in worms: score scale 0 to 2, 4 to 6 independent trials; for M = Lifespan-extending scores in worms: summary score
NRF2 [2] = experiment: in vitro; format: cell-based, human; settings: for NRF2-dependency for H2O2-resistance, at 10 uM - with H2O2, 1st experiment: experiment 1 (1st); for NRF2-dependency for H2O2-resistance, at 10 uM - with H2O2, 2nd experiment: experiment 2 (2nd); for NRF2-dependency for H2O2-resistance, 1st experiment / NRF2-dependency for H2O2-resistance, 2nd experiment: with H2O2, NRF2 knockdown in WI-38 cells, YES = resistance reduced by at least 50%, partial = 25% to 50%; for Assay 17: NRF2-dependency for H2O2-resistance: YES/NO; for NRF2-dependency of H2O2-resistance (NRF2 siRNA knockdown): at least 2 of 3 independent experiments
[3] = WI-38 cells, 10 μM, 24 hrs, n=4, qPCR normalized by B2M, read-out: GCLC Normalized fold change
[4] = WI-38 cells, 10 μM, 24 hrs, n=4, qPCR normalized by B2M, read-out: GSTM1 Normalized fold change
[5] = WI-38 cells, 10 μM, 24 hrs, n=4, qPCR normalized by B2M, read-out: HMOX1 Normalized fold change
[6] = WI-38 cells, 10 μM, 24 hrs, n=4, qPCR normalized by B2M, read-out: NQO1 Normalized fold change
[7] = in liquid, wild type, with FuDR, 1.0 × 10^9 bacteria/ml, read-out: relative change of mean lifespan vs control, Trial 1
[8] = in liquid, wild type, with FuDR, 2.5 × 10^9 bacteria/ml, read-out: relative change of mean lifespan vs control, Trial 2
[9] = on plate, CF512 temperature-sensitive sterile animals, without FuDR, 1.0 × 10^11 bacteria/ml, read-out: relative change of mean lifespan vs control, Trial 4
[10] = on plate, CF512 temperature-sensitive sterile animals, without FuDR, 2.0 × 10^10 bacteria/ml, read-out: relative change of mean lifespan vs control, Trial 3
[11] = Assay 2(z), 1.0 × 10^9 bacteria/ml, wild type + FuDR (2012 July), read-out: Lifespan assay in liquid
[12] = Assay 3(aa), 2.5 × 10^9 bacteria/ml, wild type + FuDR, read-out: Lifespan assay in liquid
[13] = Assay 4(ab), 2.0 × 10^10 bacteria/ml, CF512 worms, no FuDR, read-out: Lifespan assay on plates
[14] = Assay 5(ac), 1.0 × 10^11 bacteria/ml, CF512 worms, no FuDR, read-out: Lifespan assay on plates

## O=C1NCCCc2cc(Cl)sc21 [O1]
LC3A/B puncta; score
  H = Potential Autophagy Induction: 0
LC3A/B puncta; summary score
  H = Potential Autophagy Induction: 0
NRF2 [1]; 2-point score
  F = Potential NRF2 Activation: 0
NRF2 [1]; [3]
  fold induction at 10 µM: 1.21
NRF2 [1]; [4]
  fold induction at 10 µM: 1.09
NRF2 [1]; [5]
  fold induction at 10 µM: 1.25
NRF2 [1]; [6]
  fold induction at 10 µM: 1.08
NRF2 [1]; summary score
  F = Potential NRF2 Activation: 0
C. elegans; [7]
  ILS at 60 µM: 1.8%
C. elegans; [8]
  ILS at 60 µM: -1.7%
C. elegans; [9]
  ILS at 60 µM: -2.2%
C. elegans; [10]
  ILS at 60 µM: 22.1%
C. elegans; [11]
  ILS at 66 µM: 1.8%
C. elegans; [12]
  ILS at 66 µM: -1.7%
C. elegans; [13]
  ILS at 66 µM: 22.1%
C. elegans; [14]
  ILS at 66 µM: -2.2%
C. elegans
  O = Life span- extending scores in worms: 0
  M = Lifespan-extending scores in worms: 0
NRF2 [2]; 10 uM
  NRF2-dependency for H2O2-resistance, at 10 uM - with H2O2, 1st experiment: 1st, partial;
  NRF2-dependency for H2O2-resistance, at 10 uM - with H2O2, 2nd experiment: 2nd, partial.
  NRF2-dependency for H2O2-resistance, 1st experiment: partial;
  NRF2-dependency for H2O2-resistance, 2nd experiment: partial.
  Assay 17: NRF2-dependency for H2O2-resistance: YES
NRF2 [2]
  NRF2-dependency of H2O2-resistance (NRF2 siRNA knockdown): significantly attenuate
NRF2 [2]; score
  J = NRF2-dependency for H2O2-resistance: 1
NRF2 [2]; summary score
  J = NRF2-dependency for H2O2-resistance: 1

## COc1cccc(/C=C2\CN(C)C/C(=C\c3cccc(OC)c3OC)C2=O)c1OC [O23]
LC3A/B puncta; 10 uM & 20 uM, YES/NO
  Assay 15: Potential autophagy induction by LC3A/B puncta assays: YES
LC3A/B puncta; score
  H = Potential Autophagy Induction: 1
LC3A/B puncta; summary score
  H = Potential Autophagy Induction: 1
NRF2 [1]; 2-point score
  F = Potential NRF2 Activation: 0
NRF2 [1]; 24 h, Assay 12(o), at 10 uM, qPCR, read-out: Induction of NRF2-regulated genes: GCLC normalized fold-change
  fold induction at 10 µM: 0.67
NRF2 [1]; 24 h, Assay 12(o), at 10 uM, qPCR, read-out: Induction of NRF2-regulated genes: GSTM1 normalized fold-change
  fold induction at 10 µM: 0.6
NRF2 [1]; 24 h, Assay 12(o), at 10 uM, qPCR, read-out: Induction of NRF2-regulated genes: HMOX1 normalized fold-change
  fold induction at 10 µM: 12.9
NRF2 [1]; 24 h, Assay 12(o), at 10 uM, qPCR, read-out: Induction of NRF2-regulated genes: NQO1 normalized fold-change
  fold induction at 10 µM: 0.48
NRF2 [1]; rounded fold change, WI-38 cells, 10 μM, 24 hrs (RP11 for Gr-1D, RP29 for Gr-4D), read-out: Summary of effects on NRF2-regulated genes: HMOX1
  fold induction at 10 µM: 12.9
NRF2 [1]; rounded fold change, WI-38 cells, 10 μM, 24 hrs (RP29 for Gr-4D), read-out: Summary of effects on NRF2-regulated genes: GSTM1
  fold induction at 10 µM: 0.6
NRF2 [1]; rounded fold change, WI-38 cells, 10 μM, 24 hrs (RP29 for Gr-4D), read-out: Summary of effects on NRF2-regulated genes: NQO1
  fold induction at 10 µM: 0.48
NRF2 [1]; rounded fold change, WI-38 cells, 10 μM, 24 hrs, read-out: Summary of effects on NRF2-regulated genes: GCLC
  fold induction at 10 µM: 0.67
NRF2 [1]; 10 μM, 24 hrs, WI-38 cells, qPCR, normalized to B2M, n = 4, read-out: GCLC expression, normalized fold change (NRF2-regulated gene)
  fold induction at 10 µM: 0.67
NRF2 [1]; 10 μM, 24 hrs, WI-38 cells, qPCR, normalized to B2M, n = 4, read-out: GSTM1 expression, normalized fold change (NRF2-regulated gene)
  fold induction at 10 µM: 0.6
NRF2 [1]; 10 μM, 24 hrs, WI-38 cells, qPCR, normalized to B2M, n = 4, read-out: HMOX1 expression, normalized fold change (NRF2-regulated gene)
  fold induction at 10 µM: 12.9
NRF2 [1]; 10 μM, 24 hrs, WI-38 cells, qPCR, normalized to B2M, n = 4, read-out: NQO1 expression, normalized fold change (NRF2-regulated gene)
  fold induction at 10 µM: 0.48
NRF2 [1]; [3]
  fold induction at 10 µM: 0.668
NRF2 [1]; [4]
  fold induction at 10 µM: 0.595
NRF2 [1]; [5]
  fold induction at 10 µM: 12.9
NRF2 [1]; [6]
  fold induction at 10 µM: 0.477
NRF2 [1]; summary score
  F = Potential NRF2 Activation: 0
C. elegans; [7]
  ILS at 60 µM: 36.2%
C. elegans; [8]
  ILS at 60 µM: 17.4%
C. elegans; [9]
  ILS at 60 µM: -0.3%
C. elegans; [10]
  ILS at 60 µM: 21.6%
C. elegans; [11]
  ILS at 66 µM: 36.2%
C. elegans; [12]
  ILS at 66 µM: 17.4%
C. elegans; [13]
  ILS at 66 µM: 21.6%
C. elegans; [14]
  ILS at 66 µM: -0.3%
C. elegans; in at least 3 to 4 trials, group range ~10% to ~50%
  Extension of C. elegans' lifespan (qualitative): could extend animal's lifespan
C. elegans; positive of total trials
  Trials with lifespan extension: 3 of 4
C. elegans
  O = Life span- extending scores in worms: 2 (2 for observed in more than 2 trials)
  M = Lifespan-extending scores in worms: 2 (2 for observed in more than 2 trials)
NRF2 [2]
  Survival of NRF2 siRNA-transfected cells in the absence of H2O2: could reduce the survival
  NRF2-dependency of H2O2-resistance (NRF2 siRNA knockdown): significantly attenuate
NRF2 [2]; 10 uM
  NRF2-dependency for H2O2-resistance, at 10 uM - with H2O2, 1st experiment: 1st, YES;
  NRF2-dependency for H2O2-resistance, at 10 uM - with H2O2, 2nd experiment: 2nd, YES.
  NRF2-dependency for H2O2-resistance, 1st experiment: YES;
  NRF2-dependency for H2O2-resistance, 2nd experiment: YES.
  Assay 17: NRF2-dependency for H2O2-resistance: YES
NRF2 [2]; human, 24 h, 10 uM
  viability of non-stressed cells, reduced by: by 40%)
NRF2 [2]; score
  J = NRF2-dependency for H2O2-resistance: 1
NRF2 [2]; summary score
  J = NRF2-dependency for H2O2-resistance: 1
